{"source": "patent US20240189373A1", "about": "“BACTERIOPHAGE COMPOSITIONS FOR TREATING STAP[…]” (priority 2020, published 2024)", "tested_on": "S. aureus strains", "assay": "microbe, parasite or virus in culture", "format": "cell-based", "experimental": "Grey boxes indicate lines on graph depicted in FIG. 5B. […] Vancomycin, 16 μg/mL; AP-SA02, 0.1 pg/mL.\nFIG. 6A is data showing bacterial growth measured by turbidity (absorbance at 600 nm) in the presence of AP-SA02 and vancomycin in a checkerboard assay. Grey boxes show lines on graph depicted in FIG. 6B. […] Vancomycin, 2 μg/mL.\nStandard therapy for subjects with a S. aureus infection includes vancomycin and daptomycin. Since subjects who receive AP-SA02 are likely to be on these therapies, the effect of AP-SA02 on these antibiotics and vice versa was assessed. Using the standard checkerboard assay, the minimum inhibitory concentration of each antimicrobial alone or in combination with each other, was used to calculate whether two antimicrobials are synergistic, antagonistic, or indifferent (Table 3).", "data": [{"smiles": "CN[C@H](CC(C)C)C(=O)N[C@H]1C(=O)N[C@@H](CC(N)=O)C(=O)N[C@H]2C(=O)N[C@H]3C(=O)N[C@H](C(=O)N[C@H](C(=O)O)c4cc(O)cc(O)c4-c4cc3ccc4O)[C@H](O)c3ccc(c(Cl)c3)Oc3cc2cc(c3O[C@@H]2O[C@H](CO)[C@@H](O)[C@H](O)[C@H]2O[C@H]2C[C@](C)(N)[C@H](O)[C@H](C)O2)Oc2ccc(cc2Cl)[C@H]1O", "note": "[vancomycin]", "values": [{"measurement": "MIC", "setting": "Staphylococcus aureus", "value": "> 16", "unit": "µg/mL"}, {"measurement": "breakpoint for vancomycin in the presence of phage", "setting": "changed from resistant or intermediate to the sensitive range", "value": "0.5 to 2", "unit": "µg/mL"}]}]}
